Here are results for 2 molecules from patent US20050015823A1, “Screening methods employing fish model assessment of vision” (priority 2001, published 2005).

Structures are written as SMILES.

For series [1] the following is noted: mouse, in vivo; cited from earlier work.
A further series relates to fish. Description: treatment of model fish with test substances (drugs arrayed alone or in combination in the water/wells). It counts as in vivo. Particulars: monotherapy.

Description for fish: Fish may be contacted with a test substance, it may be touched or rubbed on their surface or injected into them. A test substance may be added to water in which they are. […] There may be one or multiple fish in each well exposed to the test substance. The test substance may be added prior to the onset of the disease phenotype, concurrent with the onset of the disease phenotype, or subsequent to the onset of the disease phenotype. The same test substance may be added to different wells at different concentration. For example, test substance 1 may be added to well A1 at a concentration of 1 mM, to well A2 at a concentration of 100 uM, to well A3 at a concentration of 10 uM, to well A4 at a concentration of 1 uM and to well A5 at a concentration of 0.1 uM. Then test substance 2 to well B1 etc. The panel of test substances may be known drugs or new chemical entities.
Additionally, the test substances may be added in combination. For example, well A2 may contain test substance 1 ‘and 2, well A3 test substance 1 and 3, well B2 test substance 2 and 3. Alternatively, every well may contain test substance x, with individual wells containing a panel of additional test substances.
In other options, a population of fish in a petri dish or a tank may be employed and treated together, e.g. via addition of one or more or a combination of test substances in the water. […]

On to `C[C@H]1c2cccc(O)c2C(=O)C2=C(O)[C@]3(O)C(=O)C(C(N)=O)=C(O)[C@@H](N(C)C)[C@@H]3[C@@H](O)[C@@H]21` [Doxycycline, doxycycline], for which the toxicity result in series [1] is reported as “no apparent toxicity”.

Regarding `CN1C(=O)CN=C(c2ccccc2)c2cc(Cl)ccc21` [diazepam], the “concentration showing therapeutic effects” value in the series with fish was 35 µM.
